Assay results: patent US5068465A, “Pharmaceutically active 3-aryl-2-fluoro-1-olefins” (Merrell Dow Pharmaceuticals Inc., priority 1990, dated 1991)

Tests used:
DBH = settings: J. Biol. Chem., 259, No. 11, 6925 (1984); cited from earlier work
monoamine oxidase = settings: J. Med. Chem., 27, 9 (1984); cited from earlier work
[1] = tested on: dopamine beta-hydroxylase (DBH); experiment: time-dependent DBH inhibitory activity (tyramine conversion followed by oxygen uptake, polarographic electrode); type: biochemical; settings: Concentration 12.9 mM; pH about 5; about 37° C.; ascorbate; tyramine substrate; 0.989 correlation
Method: The compounds of this invention are useful as dopamine beta-hydroxylase inhibitors for the treatment of, for instance, hypertension. The dopamine beta-hydroxylase (DBH) inhibitory properties of the compounds of this invention can readily be determined by standard and well known procedures. […] The test compound is added at the desired concentration, and the system is incubated. At different time intervals, tyramine, a substrate of DBH, is introduced to aliquots of the incubated enzyme solution and DBH activity is measured by the method of S. May, et al, J. Biol. Chem. 256, 2258 (1981), where the enzyme-activated conversion of tyramine is followed by monitoring oxygen uptake by means of a polarographic electrode and an oxygen monitor, to determine the level of DBH activity.

SMILES: C=C(Br)Cc1ccc(O)cc1 [2-bromo-3-(4-hydroxyphenyl)-1-propene]
- mechanism-based inhibitors of DBH (DBH): mechanism-based inhibitors of DBH

SMILES: C=C(Cl)Cc1ccc(O)cc1 [2-chloro-3-(4-hydroxyphenyl)-1-propene]
- mechanism-based inhibitors of DBH (DBH): mechanism-based inhibitors of DBH

SMILES: COc1ccc(C(=CF)CN)cc1OC [2-(3,4-dimethoxyphenyl)-3-fluoroallylamine]
- active as a monoamine oxidase inhibitor (monoamine oxidase): active as a monoamine oxidase inhibitor

SMILES: C=C(F)Cc1ccc(O)cc1 [3-(4-Hydroxyphenyl)-2-Fluoro-1-Propene]
- t 1/2: time required to reach 50% log activity [1]: 5 min.
